Assay results as given in patent US5116971A, “Substituted-1,4-diazepines” (Boehringer Ingelheim KG, priority 1986, dated 1992).
Read-outs that look alike come from different tables or passages of the source.

Test system: human platelets (aggregation induced by PAF)
Assay: inhibition of PAF-induced blood platelet aggregation in vitro
Format: cell-based
Method: To determine the PAF-antagonistic action of substances, use was made of the aggregation of human platelets induced in vitro by PAF. To obtain platelet-rich plasma (PRP), blood is taken from an uncompressed vein using a plastic syringe containing 3.8% strength sodium citrate solution. The ratio between sodium citrate solution and blood is 1:9. After careful mixing, the citrated blood is centrifuged at 150×g (1200 rpm) for 20 minutes. The platelet aggregation is measured by the method worked out by Born and Cross (G. V. R. Born and M. J. Cross, J. Physiol. 168, 178 (1963)), with PAF being added to the continuously stirred PRP to initiate the aggregation. The test substance is added in a volume of 10 ul in each case 2-3 minutes before initiation of the aggregation. The solvents used are either distilled water, ethanol and/or dimethyl sulphoxide. Blanks contain corresponding volumes of these solvents. After the initial absorption has been recorded (2-3 minutes), aggregation is induced with PAF (5×10^-8 M). To assess the effects of substances, use is made of the maximum of the first aggregation wave. The maximum absorption rate (=maximum aggregation×100%) induced by PAF is, in each case, simultaneously checked in a parallel mixture (=blank in one channel of the two-channel aggregometer) for each test mixture (second channel) and used as the 100% value. The aggregation obtained under the influence of the test substance is […].

[1] = Homo sapiens, read-out: IC50 (concentration for 50% inhibition of aggregation)
[2] = read-out: IC50 (concentration for 50% inhibition of aggregation), Table A, human PRP, PAF 5×10^-8 M

SMILES | IC50 [1] | IC50 [2]
COC(=O)C[C@H](NC(=O)c1ccc2c(c1)C(c1ccccc1Cl)=NCc1nnc(C)n1-2)C(=O)OC [compound 5] | 1200 nM | 
Cc1nnc2n1-c1ccc(C(=O)NC3CCSC3=O)cc1C(c1ccccc1Cl)=NC2 (stereo not drawn) [compound 11] | 3500 nM | 
COc1nnc2n1-c1ccc(C(=O)NCC(=O)N3CCOCC3)cc1C(c1ccccc1Cl)=NC2 [compound 33] | 2500 nM | 
Cc1nnc2n1-c1ccc(Cl)cc1C(c1ccccc1Cl)=NC2 [Triazolam, triazolam, reference compound] | 9000 nM | 
Cc1nnc2n1-c1ccc(CC(=O)NCC(=O)N3CCOCC3)cc1C(c1ccccc1Cl)=NC2 [compound 12] | 1100 nM | 
C[C@H](NC(=O)c1ccc2c(c1)C(c1ccccc1Cl)=NCc1nnc(C3CC3)n1-2)C(=O)N1CCCC1 [compound 35] | 900 nM | 
Cc1nnc2n1-c1ccc(C(=O)NCC(=O)N3CCOCC3)cc1C(c1ccccc1Cl)NC2 (stereo not drawn) [compound 21] |  | 1900 nM
Cc1nnc2n1-c1ccc(C(=O)N[C@H](C(=O)NC(C)C)C(C)C)cc1C(c1ccccc1Cl)=NC2 [compound 27] | 700 nM | 
COC(=O)CCNC(=O)c1ccc2c(c1)C(c1ccccc1Cl)=NCc1ncc(C)n1-2 [compound 2] | 900 nM | 
COC(=O)[C@@H](CCSC)NC(=O)c1ccc2c(c1)C(c1ccccc1Cl)=NCc1nnc(C)n1-2 [compound 15] | 900 nM | 
CCN(CC)C(=O)[C@H](CC(C)C)NC(=O)c1ccc2c(c1)C(c1ccccc1Cl)=NCc1nnc(C)n1-2 [compound 16] | 400 nM | 
Cc1nnc2n1-c1ccc(C(=O)NCC(=O)N3CCOCC3)cc1C(c1ccccc1Cl)=NC2 [compound 4] | 700 nM | 
Cc1nnc2n1-c1sc(C(=O)N(C)CC(=O)N3CCOCC3)cc1C(c1ccccc1Cl)=NC2 [compound 28] |  | 1900 nM
Cc1nnc2n1-c1sc(CCC(=O)NCC(=O)N3CCOCC3)cc1C(c1ccccc1Cl)=NC2 [compound 48] |  | 600 nM
Cc1nnc2n1-c1ccc(C(=O)N3CCC[C@H]3C(=O)N3CCOCC3)cc1C(c1ccccc1Cl)=NC2 [compound 18] | 8100 nM | 
